One data set deals with ERK2 (p42). Nature of the data set: ERK2 (p42) phosphorylation in hippocampal slices (immunoblotting, densitometry). Format: cell-based, rat. The settings on record: for p42 phosphoprotein signal normalized to total protein: 1 μM. The method, then:
(§1) Western blots panels A and B) of hippocampal slices treated with (A) 1 μM fisetin or (B) pretreated for 30 minutes with either 50 μM PD98059 (PD) or 10 μM U0126 (U) before the addition of 1 μM fisetin for 5 minutes, which blots were probed with the indicated antibodies.
(§2) Hippocampal slices in artificial cerebral spinal fluid (ACSF) were treated with either 1 μM fisetin for 5-20 minutes or pretreated for 30 minutes with either 50 μM PD98059 (PD) or 10 μM U0126 (J) before the addition of 1 μM fisetin for 5 minutes. Equal amounts of protein were analyzed by SDS-PAGE and immunoblotting with antibodies to phospho-ERK and phospho-CRFB along with antibodies to the unphosphorylated forms of the proteins. The average phosphoprotein signal from the blots was quantified by densitometry and normalized to total protein was plotted±S.D.

Another data set has as its system Rabbits. Nature of the data set: Small blood clot embolism model of brain ischemia (P50). Format: in vivo. The settings on record: 50 mg/kg intravenously, bolus 5 minutes after embolization; 24 hours post-embolism. The method, then:
Rabbits were embolized with small blood clots of varying size (from about 1 mg to about 4 mg) according to the procedure described by Lapchak et al. (Exp. Neurol., 188.279-285, 2004). […] In some subjects, fisetin treatment (50 mg/kg delivered intravenously) was given as a bolus 5 minutes after embolization. Twenty four (24) hours later, a naïve observer rated each treated or control animal as either behaviorally normal or abnormal. Rabbits judged “abnormal” included those with at least one of the following symptoms: ataxia, leaning, circling, lethargy, nystagmus, loss of balance, loss of sensation and occasionally paraplegia. […] The effective stroke dose or P50 value was then calculated as the amount of microclots (in mg) that produce behavioral impairment in 50% of the animals within a specific treatment group.

In the next data set the test system is ERK1 (p44). In words: ERK1 (p44) phosphorylation in hippocampal slices (immunoblotting, densitometry). Format: cell-based, rat. The note with it: for p44 phosphoprotein signal normalized to total protein: 1 μM. The method, then: as §1, §2
The test system of data set [1] is CREB. In words: CREB activation in primary cortical neuron cultures (immunoblotting). Format: cell-based, rat. The note with it: 10 μM, 30 minutes to 6 hours. On the procedure: The average phosphoprotein signal from the blots was quantified by densitometry and normalized to total protein,
Five (5) day old cortical cultures were next pretreated with 50 μM of the MEK inhibitor, PD98059, before the addition of 10 μM fisetin for 4 hours.
Primary cultures of rat cortical neurons were prepared as previously described by Li et al. (Neuron, 19:453-63, 1997, herein incorporated by reference as to the method). Analysis of ERK and CREB phosphorylation was performed using SDS-polyacrylamide gel electrophoresis and immunoblotting as previously described by Sagara et al. (J. Neurochem., 90:1144-1155, 2004) using equal amounts of protein from 5 day old cortical cultures. Blots were scanned and quantified using NIH Image. Results were analyzed using an unpaired Student's t-test.
In general terms: In western blotting, separated proteins are transferred to a membrane and probed.

The next data set has as its system cAMP. In words: cAMP levels in hippocampal slices (Scintillation Proximity Assay). Format: cell-based. On the procedure:
Hippocampal slices were treated with fisetin using the conditions where maximal stimulation of CREB phosphorylation and facilitation of LTP were observed. Briefly, hippocampal slices in ACSF were treated with 1 μM fisetin for 5 minutes (fisetin) or 3 μM rolipram for 30 minutes (rolipram) and then either immediately frozen or treated with […] forskolin for an additional 15 minutes (rolipram+forskolin; fisetin+forskolin) prior to freezing. Additional slices were treated only with 5 μM forskolin for 15 minutes (forskolin). Forskolin, an activator of adenylyl cyclase, and rolipram were used as positive controls. The levels of cAMP in the slices were measured using a Scintillation Proximity Assay and presented as pmole/mg protein±S.D.
Background: cAMP levels reflect the balance of adenylyl cyclase and phosphodiesterase activity.

In data set [2] the test system is CREB. In words: CREB phosphorylation in hippocampal slices (immunoblotting, densitometry). It counts as cell-based, rat. The settings on record: for CREB phosphoprotein signal normalized to total protein: 1 μM. The method, then: as §1, §2
Another data set concerns Sprague-Drawley rats. Nature of the data set: Morris water maze (spatial learning and memory). It counts as in vivo. The note with it: 25 mg/kg by gavage. The method, then:
This example describes use of the Morris water maze (MWM) to examine hippocampus-dependent spatial learning and memory in rats. The standard test consists of two parts; a training phase, which measures the ability of the animals to learn where a hidden platform is located within an opaque pool of water and a probe test, which is performed 24 hours after the last training trial and measures the ability of the animals to remember the location of the platform (Vorhees & Williams, Nature Protocols 1.848-58, 2(006))
To test whether oral administration of fisetin could increase spatial learning and/or memory, young male Sprague-Drawley rats (8 weeks old) were administered fisetin by gavage (25 mg/kg) beginning one day before the training phase and continuing throughout the 8 days of training. The rats were given four trials a day for 8 days. Retention of the spatial training was assessed 24 hours after the last training trial. The probe trial consisted of a 60 second free swim in the pool without the platform. Both the training and probe trials were monitored by a video camera mounted above the pool and all data were analyzed by software provided with the video-tracking program.

The next data set concerns protein kinase A. The note with it: PC12 cells; Sagara et al. 2004; cited from earlier work.
Another data set relates to C57BL/6 mice. Nature of the data set: MPTP-induced striatal dopamine loss. It counts as in vivo. On the procedure: C57BL/6 mice from about 11 to 12 week old (20-25 g) were injected with a single dose of […] 1-methyl-4-phenyl-1,2,3,6-tetrahydropyridine (MPTP). MPTP is toxic to dopaminergic neurons in the substantia nigra, and produces many of the symptoms of Parkinson's disease. MPTP-treated mice have long been used as a model of human Parkinson's disease (see, e.g., reviews by Smeyne and Jackson-Lewis, Brain Bes. Mol. Brain Res., 134(1):57-66, 2005; Tetrud and Langston, Acta Neurol. Scand. Suppl., 126:35-40, 1989). After 8 days, the animals were euthanized and the striata dissected and assayed for dopamine content by HPLC combined with electrochemical detection, as previously described (Irwin e/al., Brain Res., 572:224-231, 1992). One group of untreated mice (n=4) and one group of MPTP-treated mice (n=4) received orally administered fisetin (25 mg/kg) beginning one day before treatment groups received MPTP and continuing for the same time period as MPTP treatment in treatment groups. Mice untreated with MPTP or fisetin (control) and mice treated with MPTP alone were also examined.

The mark [3] stands for this setting: hippocampal slices, 1 μM fisetin.

Entries after “also recorded” stand apart in the source; their conditions may differ.

As to `O=c1c(O)c(-c2ccc(O)c(O)c2)oc2cc(O)ccc12` [fisetin, 3,3′,4′,7-tetrahydroxyflavone], the “p42 phosphoprotein signal normalized to total protein” value in the data set with ERK2 (p42) (5 min) amounted to 1.68±0.06; in the data set on ERK2 (p42) (10 min), 1.31±0.05; in the data set on ERK2 (p42) (20 min) it was 1.42±0.03. Besides, in the data set with ERK2 (p42) (setting [3]), the “increase in ERK2 phosphorylation” value was 2 fold. The “P50 value (mg clot that produce behavioral deficits in 50% of the animals)” value in the data set on Rabbits was found to be 2.18 ± 0.42 mg. Further, the results for the “p44 phosphoprotein signal normalized to total protein” value with ERK1 (p44) (5 min), with ERK1 (p44) (10 min) and with ERK1 (p44) (20 min) were 1.98±0.16, 1.48±0.02 and 1.30±0.09, respectively. The “increase in ERK 1 phosphorylation” value in the data set with ERK1 (p44) (setting [3]) was determined as 2 fold. Moreover, the CREB activation entry in the data set with CREB [1] was “enhanced CREB activation”. Besides, the “effect on cAMP levels by itself” value with cAMP (1 μM fisetin 5 minutes, 3 μM rolipram 30 minutes) is recorded as “no effect; also recorded: does not increase cAMP levels”. In the data set with cAMP (then 5 μM forskolin for 15 minutes), the “potentiation of the effect of forskolin on cAMP levels” value is listed as “nor did it potentiate”. The results for the “CREB phosphoprotein signal normalized to total protein” value with CREB [2] (5 min), in the data set with CREB [2] (10 min) and in the data set with CREB [2] (20 min) were 2.87±0.56, 2.72±0.12 and 2.55±0.39, respectively. Besides, the “increase in CREB phosphorylation” value in the data set with CREB [2] (hippocampal slices, fisetin) was around 3 fold. Further, the “effect on swim speed or thigmotaxis” value in the data set on Sprague-Drawley rats is recorded as “no significant effect”. Besides, the “ability of the rats to learn the location of the hidden platform” value with Sprague-Drawley rats (8 days of training) was “no clear effect”. In the data set on Sprague-Drawley rats (24 hours after last training trial, vs vehicle), the “probe test: time in the quadrant where the platform had been located (spatial memory)” value is listed as “significantly more time; also recorded: enhances spatial memory”. Further, the “activation of the cAMP target protein kinase A” value with protein kinase A is “does not result in the activation”. The striatal dopamine concentration result is “at least as high as control” in the data set with C57BL/6 mice (MPTP and fisetin 25 mg/kg oral); “highest concentrations of striatal dopamine” in the data set with C57BL/6 mice (fisetin alone 25 mg/kg oral, no MPTP).

The record behind these values is patent US7897637B2, “Methods of using flavonoids to enhance memory” (The Salk Institute for Biological Studies, priority 2006, dated 2011).
